Experiment [1] in a line: Inhibition of Abl […] mutant (unknown origin). Also noted: species or system Homo sapiens.
The test system of experiment [2] is K562. As to the kind of experiment: Antiproliferative activity against human K562 cells assessed as cell growth inhibition measured after 48 hrs by WST assay. The format is functional, cell-based. As to conditions: K562, 48 h.
Experiment [3] deals with KBM5. As to the kind of experiment: Antiproliferative activity against human KBM5 cells assessed as cell growth inhibition measured after 24 to 48 hrs by MTS assay. The format is functional, cell-based.
Experiment [4] has as its system KBM5. As to the kind of experiment: Antiproliferative activity against human KBM5 cells harbouring T315I mutant assessed as cell growth inhibition measured after 24 to 48 hrs by MTS assay. The format is functional, cell-based.
The test system of experiment [5] is K562. As to the kind of experiment: Antiproliferative activity against human K562 cells assessed as cell growth inhibition measured after 24 to 48 hrs by MTS assay. The format is functional, cell-based.
Experiment [6] has as its system K562. As to the kind of experiment: Antiproliferative activity against imatinib resistant human K562 cells assessed as cell growth inhibition measured after 48 to 72 hrs by MTS assay. The experiment is classed as functional, cell-based.
In experiment [7] the target is Platelet-derived growth factor receptor beta (Homo sapiens, UniProt P09619). As to the kind of experiment: Inhibition of PDGFRbeta (unknown origin).
Sequence of Platelet-derived growth factor receptor beta (P09619 whole entry): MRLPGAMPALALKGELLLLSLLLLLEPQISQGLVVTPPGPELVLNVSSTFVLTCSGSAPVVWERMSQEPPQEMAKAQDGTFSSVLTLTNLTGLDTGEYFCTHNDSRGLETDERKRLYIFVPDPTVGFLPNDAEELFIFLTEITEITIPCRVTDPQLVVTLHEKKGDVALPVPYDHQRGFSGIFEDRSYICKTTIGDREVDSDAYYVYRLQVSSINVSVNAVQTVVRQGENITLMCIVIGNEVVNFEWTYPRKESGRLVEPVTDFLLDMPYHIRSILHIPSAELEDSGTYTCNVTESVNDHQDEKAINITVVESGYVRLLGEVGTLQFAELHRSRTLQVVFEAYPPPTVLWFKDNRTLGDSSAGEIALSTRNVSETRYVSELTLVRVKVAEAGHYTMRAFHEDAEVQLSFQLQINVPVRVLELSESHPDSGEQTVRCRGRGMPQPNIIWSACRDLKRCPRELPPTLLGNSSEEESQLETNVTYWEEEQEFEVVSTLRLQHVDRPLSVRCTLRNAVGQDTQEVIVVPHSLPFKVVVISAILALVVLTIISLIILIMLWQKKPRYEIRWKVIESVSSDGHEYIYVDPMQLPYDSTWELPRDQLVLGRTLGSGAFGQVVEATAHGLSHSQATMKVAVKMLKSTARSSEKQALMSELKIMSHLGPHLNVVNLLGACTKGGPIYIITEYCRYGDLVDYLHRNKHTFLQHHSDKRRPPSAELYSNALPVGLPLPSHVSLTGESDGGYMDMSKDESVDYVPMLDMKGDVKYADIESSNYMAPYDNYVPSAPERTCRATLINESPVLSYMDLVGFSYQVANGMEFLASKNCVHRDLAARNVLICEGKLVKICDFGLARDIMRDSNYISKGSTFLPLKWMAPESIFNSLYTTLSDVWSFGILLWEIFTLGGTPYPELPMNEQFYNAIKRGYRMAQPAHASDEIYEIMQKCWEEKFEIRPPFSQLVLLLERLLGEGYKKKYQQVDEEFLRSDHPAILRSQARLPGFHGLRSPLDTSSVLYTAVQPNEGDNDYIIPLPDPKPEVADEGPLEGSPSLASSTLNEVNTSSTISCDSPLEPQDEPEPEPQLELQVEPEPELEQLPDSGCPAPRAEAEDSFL
Experiment [8] has as its target Mast/stem cell growth factor receptor Kit (Homo sapiens, UniProt P10721). As to the kind of experiment: Inhibition of c-Kit (unknown origin).
Experiment [9] relates to K562. As to the kind of experiment: Antiproliferative activity against imatinib resistant human K562 cells harbouring wild type ABL assessed as cell growth inhibition by XTT assay. The experiment is classed as functional.
In experiment [10] the test system is K562. As to the kind of experiment: Antiproliferative activity against imatinib resistant human K562 cells harbouring ABL-T315I mutant assessed as cell growth inhibition by XTT assay. The experiment is classed as functional.
For another experiment, the target named is Bcr/Abl fusion protein (Homo sapiens, UniProt P00519). As to the kind of experiment: Inhibition of BCR-ABL (unknown origin). The experiment is classed as protein assay.
Sequence of Bcr/Abl fusion protein (P00519 whole entry, the tested form may be a part): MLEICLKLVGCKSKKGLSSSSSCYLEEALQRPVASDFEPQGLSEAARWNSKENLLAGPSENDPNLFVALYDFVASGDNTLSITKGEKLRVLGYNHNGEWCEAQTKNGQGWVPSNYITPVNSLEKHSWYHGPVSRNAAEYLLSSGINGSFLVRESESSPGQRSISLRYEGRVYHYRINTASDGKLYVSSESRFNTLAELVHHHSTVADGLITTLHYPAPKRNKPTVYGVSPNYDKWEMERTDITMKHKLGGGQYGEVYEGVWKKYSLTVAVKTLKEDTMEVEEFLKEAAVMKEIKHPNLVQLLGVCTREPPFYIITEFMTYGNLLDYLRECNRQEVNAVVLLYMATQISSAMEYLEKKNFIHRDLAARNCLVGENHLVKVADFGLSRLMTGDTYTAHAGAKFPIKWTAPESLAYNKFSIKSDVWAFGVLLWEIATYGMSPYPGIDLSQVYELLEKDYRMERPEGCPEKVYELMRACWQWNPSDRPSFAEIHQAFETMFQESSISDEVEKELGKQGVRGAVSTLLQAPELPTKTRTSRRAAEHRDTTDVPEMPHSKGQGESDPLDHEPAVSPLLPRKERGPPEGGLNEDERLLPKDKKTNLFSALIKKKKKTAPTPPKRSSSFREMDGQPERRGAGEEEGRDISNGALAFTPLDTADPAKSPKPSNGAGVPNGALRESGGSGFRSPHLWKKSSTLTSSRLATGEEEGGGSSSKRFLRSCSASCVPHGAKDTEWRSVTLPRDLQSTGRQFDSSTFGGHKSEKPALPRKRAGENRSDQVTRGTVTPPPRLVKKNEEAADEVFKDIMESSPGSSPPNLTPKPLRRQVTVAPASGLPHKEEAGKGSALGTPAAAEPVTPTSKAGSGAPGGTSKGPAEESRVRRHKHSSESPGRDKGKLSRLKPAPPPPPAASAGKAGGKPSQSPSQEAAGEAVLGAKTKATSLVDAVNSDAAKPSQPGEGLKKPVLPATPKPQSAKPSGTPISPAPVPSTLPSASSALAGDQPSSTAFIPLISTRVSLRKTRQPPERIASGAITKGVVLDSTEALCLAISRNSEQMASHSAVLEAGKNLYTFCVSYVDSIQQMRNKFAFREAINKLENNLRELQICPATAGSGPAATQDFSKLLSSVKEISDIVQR
Sequence of Bcr/Abl fusion protein (P11274 whole entry, further chain, the tested form may be a part): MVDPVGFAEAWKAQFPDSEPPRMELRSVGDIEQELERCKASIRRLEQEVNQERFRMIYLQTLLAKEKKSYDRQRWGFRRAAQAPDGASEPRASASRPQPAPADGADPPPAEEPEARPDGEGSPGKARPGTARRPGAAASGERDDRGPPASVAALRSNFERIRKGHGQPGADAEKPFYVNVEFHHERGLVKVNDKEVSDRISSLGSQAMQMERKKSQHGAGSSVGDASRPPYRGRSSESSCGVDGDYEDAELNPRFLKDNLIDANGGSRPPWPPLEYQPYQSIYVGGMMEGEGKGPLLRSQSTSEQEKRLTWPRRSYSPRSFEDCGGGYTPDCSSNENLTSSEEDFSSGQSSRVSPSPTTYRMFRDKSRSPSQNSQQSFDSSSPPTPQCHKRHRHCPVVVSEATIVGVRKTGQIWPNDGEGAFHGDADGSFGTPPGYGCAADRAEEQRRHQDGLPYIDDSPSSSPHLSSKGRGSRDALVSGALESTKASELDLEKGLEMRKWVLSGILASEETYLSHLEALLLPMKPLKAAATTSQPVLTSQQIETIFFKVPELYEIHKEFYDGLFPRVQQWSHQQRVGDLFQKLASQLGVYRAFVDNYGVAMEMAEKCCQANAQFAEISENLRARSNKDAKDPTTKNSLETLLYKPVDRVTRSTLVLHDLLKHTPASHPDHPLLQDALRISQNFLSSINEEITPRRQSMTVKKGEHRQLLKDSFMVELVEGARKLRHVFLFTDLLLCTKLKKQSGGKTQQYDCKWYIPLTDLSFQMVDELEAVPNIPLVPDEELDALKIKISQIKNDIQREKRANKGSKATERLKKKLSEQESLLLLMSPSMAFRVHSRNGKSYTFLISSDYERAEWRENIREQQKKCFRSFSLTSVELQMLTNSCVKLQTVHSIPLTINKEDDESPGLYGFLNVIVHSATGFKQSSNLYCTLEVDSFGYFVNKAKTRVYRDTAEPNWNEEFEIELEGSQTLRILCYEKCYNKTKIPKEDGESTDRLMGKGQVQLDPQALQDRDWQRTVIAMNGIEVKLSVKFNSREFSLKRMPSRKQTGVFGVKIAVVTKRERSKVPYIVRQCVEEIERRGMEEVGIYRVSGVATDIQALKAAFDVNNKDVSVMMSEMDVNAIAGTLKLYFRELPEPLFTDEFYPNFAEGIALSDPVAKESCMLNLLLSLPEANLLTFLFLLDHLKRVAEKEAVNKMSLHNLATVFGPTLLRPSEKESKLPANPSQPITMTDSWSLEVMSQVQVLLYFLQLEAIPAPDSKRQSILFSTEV
Experiment [11] has as its system K562. As to the kind of experiment: Antiproliferative activity against imatinib resistant human K562 cells assessed as cell growth inhibition measured after 48 hrs by MTT assay. As to conditions: K562, 48 h. The format is functional, cell-based.
For the next experiment, the system named is Leukemia cell. Description: Cytotoxicity against human Leukemia cell assessed as cell growth inhibition measured after 48 hrs by MTT assay. The experiment is classed as functional, cell-based.
Experiment [12] is described as follows: Cytotoxicity against human CD34-positive/CD38-negative leukemic cell assessed as cell growth inhibition measured after 48 hrs by MTT assay. The format is functional, cell-based.
For experiment [13], the system named is K562. Description: Cytotoxicity against human K562 cells assessed as cell growth inhibition measured after 72 hrs by MTT assay. The format is functional, cell-based. The note with it: K562, 72 h.
Experiment [14] in a line: Inhibition of Aurora kinase (unknown origin). The arrangement: species or system Homo sapiens.
In another experiment the test system is HL-60. As to the kind of experiment: animal or person. The note with it: Mus musculus, HL-60, 528 h, read-out: TGI.

Sequence of Mast/stem cell growth factor receptor Kit (P10721 whole entry): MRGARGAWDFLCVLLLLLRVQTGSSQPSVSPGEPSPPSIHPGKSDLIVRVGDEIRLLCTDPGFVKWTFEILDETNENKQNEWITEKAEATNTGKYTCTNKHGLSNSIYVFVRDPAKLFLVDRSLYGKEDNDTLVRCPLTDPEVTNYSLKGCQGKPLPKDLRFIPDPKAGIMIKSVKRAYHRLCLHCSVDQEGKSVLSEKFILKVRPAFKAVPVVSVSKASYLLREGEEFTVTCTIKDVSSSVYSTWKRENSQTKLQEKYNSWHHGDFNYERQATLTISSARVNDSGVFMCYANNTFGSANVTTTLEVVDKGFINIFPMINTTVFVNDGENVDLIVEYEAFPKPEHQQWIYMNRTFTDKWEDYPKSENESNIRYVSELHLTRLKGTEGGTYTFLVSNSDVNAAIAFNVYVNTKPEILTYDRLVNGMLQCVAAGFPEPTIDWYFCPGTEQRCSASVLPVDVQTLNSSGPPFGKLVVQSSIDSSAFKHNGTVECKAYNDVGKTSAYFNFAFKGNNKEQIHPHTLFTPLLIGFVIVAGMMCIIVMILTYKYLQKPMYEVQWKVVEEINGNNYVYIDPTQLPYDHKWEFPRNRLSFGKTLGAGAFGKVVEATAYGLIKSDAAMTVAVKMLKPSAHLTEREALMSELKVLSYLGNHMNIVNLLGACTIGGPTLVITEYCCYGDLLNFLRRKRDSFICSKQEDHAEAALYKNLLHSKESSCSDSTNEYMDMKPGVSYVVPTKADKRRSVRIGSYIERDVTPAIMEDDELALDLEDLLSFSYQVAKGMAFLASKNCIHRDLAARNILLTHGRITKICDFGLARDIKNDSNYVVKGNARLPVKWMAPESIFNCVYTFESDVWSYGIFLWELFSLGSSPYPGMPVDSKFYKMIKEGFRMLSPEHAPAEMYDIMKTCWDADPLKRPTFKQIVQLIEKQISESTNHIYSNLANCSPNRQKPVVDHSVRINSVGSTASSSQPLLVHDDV
Description for HL-60: Antitumor activity against human HL-60 cells xenografted in SCID mouse assessed as tumor growth inhibition at 30 mg/kg, iv measured after 22 days relative to control

In experiment [1], `CNC(=O)c1cc(Oc2ccc(NC(=O)Nc3cc(C(C)(C)C)nn3-c3ccc4ncccc4c3)c(F)c2)ccn1` [REBASTINIB] returned an IC50 of 1.4 nM.
Take `CN[C@@H](C)C(=O)N[C@H](C(=O)N1CCC[C@H]1c1nc(C(=O)c2ccc(OCCOCCOCCOCC(=O)N3CCN(c4cc(Nc5ncc(C(=O)Nc6c(C)cccc6Cl)s5)nc(C)n4)CC3)cc2)cs1)C1CCCCC1`: in the experiment with K562 [2], the half-inhibitory concentration (IC50) worked out at 8.6 nM.
For the compound `COc1ccc(-c2cc(=O)c3c(O)cc(O)cc3o2)cc1O` [DIOSMETIN], the IC50 with KBM5 [3] was determined as 8520 nM; with KBM5 [4] it was 6460 nM; in the experiment with K562 [5] it was 8420 nM.
On to `CC(C)=CCC[C@]1(C)C=Cc2c(O)c3c(c(CC=C(C)C)c2O1)O[C@]12C(=C[C@@H]4C[C@H]1C(C)(C)O[C@@]2(C/C=C(/C)C(=O)O)C4=O)C3=O` [GAMBOGIC ACID], for which, in the experiment on K562 [6], the IC50 came out at 620 nM.
`Cc1ncc(NC(=O)c2ccc(CN3CCN(C)CC3)c(C(F)(F)F)c2)cc1Nc1nccc(-c2cccnc2)n1` [FLUMATINIB]: the IC50 in experiment [7] came to 308 nM; in experiment [8], 666 nM.
As for `O=C(c1ccc(/C=C/c2n[nH]c3ccccc23)cc1)N1CCNCC1` [KW-2449], the GI50 in the experiment on K562 [9] and with K562 [10] was 270 nM throughout.
In the case of `Cc1cn(-c2cc(NC(=O)c3ccc(C)c(Nc4nccc(-c5cnccn5)n4)c3)cc(C(F)(F)F)c2)cn1` [RADOTINIB], the IC50 at Bcr/Abl fusion protein was found to be 1.2 nM.
Consider `COc1ccc2cc1Oc1ccc(cc1)C[C@H]1c3cc(c(OC)cc3CCN1C)Oc1c(OC)c(OC)cc3c1[C@H](C2)N(C)CC3.O=C(O)CC(O)(CC(=O)O)C(=O)O`, for which the IC50 (with K562 [11]; in the experiment on Leukemia cell; in experiment [12]) was 1.2 µg/mL each time.
As for `Cc1ccc(C(=O)Nc2ccc(CN3CCN(C)CC3)c(C(F)(F)F)c2)cc1C#Cc1nnc2ccccn12` [VAMOTINIB], the IC50 with K562 [13] worked out at 1 nM.
As for `CO[C@H](C(=O)N1Cc2[nH]nc(NC(=O)c3ccc(N4CCN(C)CC4)cc3)c2C1)c1ccccc1`, the IC50 in [14] came to 13 nM. The inhibition in vivo at 30 mg/kg in the experiment with HL-60 amounted to 98%.
